Data set [1] is described as follows: Plasma free fraction by ultrafiltration. In kind it is in vitro ADME. Particulars: NHP plasma, before tracer injection. On the procedure: The fraction of [^18F]UCB-H in NHP plasma samples not bound to plasma protein was measured before PET injection using a previously described ultrafiltration method. In brief, standard amounts of [^18F]UCB-H (≈15 kBq) were added to 200 μL plasma that was applied to Microcon® filtration devices containing an YM-10 membrane (Millipore, France). The devices were centrifuged for 10 min at 10,000 g (Sigma 2-16KL, France). [^18F]UCB-H activity concentration in the resulting ultrafiltrate (≈70 μL, CFP) and a sample of plasma (CP) were counted. The free fraction (fp) was calculated as: fp = CFP/CP and measured in triplicates.

Another data set concerns the target T1, SV2A (Macaca fascicularis, UniProt Q4R4X3).
T1 construct: The current study evaluates [^18F]UCB-H pharmacokinetics in healthy NHPs; from tissue; host or cells: brain of living healthy cynomolgus monkeys (in vivo PET)
The experiment in a line: Displacement PET studies of [^18F]UCB-H. In kind it is in vivo, cynomolgus monkeys (Macaca fascicularis). Particulars: about half of total uptake displaceable. On the procedure:
(§1) All four non-human primates (NHP) underwent a 2-h (2 h) test and retest PET scan; two NHP underwent an additional 4-h (4 h) retest PET scan. Three NHP underwent one 4-h (4 h) displacement PET scan. Arterial blood sampling was performed during test and retest scans with PET imaging spaced by at least 3 weeks between each scan. To this end, the femoral artery opposite to the saphenous vein used for radioligand injection was cannulated. For the 2-h (2 h) scans, we collected in total 28 blood samples of 1 mL: 16 samples during the first 5 min followed by […] every 5 min and […] every 10 min. For the 4 h scans, we collected an additional 6 samples every 20 min during the last two hours (34 samples in total). Larger samples (2 – 3 mL) were collected at 5, 15, 30, 60, 90, 120 min (2 h) and at 180, 240 min (4 h) for metabolite analysis. Displacement of [^18F]UCB-H was done by intravenous (IV) administration 90 min after [^18F]UCB-H injection of a bolus of 30 mg/kg LEV, or of 80 µg/kg (≈250 nmol/kg) or 5 mg/kg (≈15 µmol/kg) of cold [^19F]-UCB-H. Full experimental design of all NHP is outlined in Additional file 1: Table 1.
Solvents and LEV (C8H14N2O2; MM 170.21 g/mol) were obtained at Sigma-Aldrich® (France), and [^19F]-UCB-H (C16H12F4N2O; MM 324.28 g/mol) was synthesised as previously described. Injectable solutions of [^19F]-UCB-H for displacement studies were prepared with a mixture of Tetrahydrofuran (THF), Médialipide® and glucose at 2.5% as previously described. LEV was dissolved in a glucose solution of 2.5% to reach a concentration of 90 mg/mL.
PET image analysis was performed using PMOD software version 3.8 (PMOD Technologies Ltd., Zurich, Suisse). After individual co-registration of PET-MR images, a cynomolgus atlas published by Ballanger and coworkers was normalized to PET images to extract time activity curves in different brain regions. Volumes of interest (VOI) were cerebral white matter (16.7 cm^3), striatum (0.24 cm^3), thalamus (0.89 cm^3), cerebellum (3.83 cm^3), frontal—(2.50 cm^3), parietal—(5.35 cm^3), and temporal (8.22 cm^3) cortex, and whole brain (72.2 cm^3) as a composite region of all regions in the atlas. [^18F]UCB-H pharmacokinetics were evaluated by analyzing the time activity curves of the test- and retest scans using 1- and 2-tissue compartment models (unconstrained and constrained with global K1/k2 coupled fit across all regions, further referred to as 2TCM and 2TCM-c), and Logan graphical analysis with a fixed t* at 60 min [33] using the arterial plasma input function corrected for radio-metabolites to derive the volume of distribution in each region. Percentage standard error (%SE) was estimated from the theoretical parameter covariance matrix. Only reliable estimates (%SE less than 25%) were included in the current analyses. For the three drug studies, percent displacement of the total activity in the whole brain was estimated relative to an average baseline constructed from the two 4 h baseline studies. Briefly, Standardized Uptake Value (SUV) time activity curves (TACs) were calculated for the two baseline and the three displacement studies. Then, each curve was normalized to the SUV at t = 90 min, corresponding to the timeframe immediately before the administration of the drugs in the displacement studies. Baseline curves were averaged and the percent displacement of total activity was calculated as (baseline-displacement)/baseline at a given time post drug administration (see “Results”).

Data set [2] can be described thus: Arterial blood sampling and radiometabolite analysis after i.v. [^18F]UCB-H. In kind it is in vivo, cynomolgus monkeys (Macaca fascicularis). To be noted: for intact parent fraction: arterial blood. On the procedure:
as §1
Plasma was separated from whole-blood by centrifugation (5 min, 2054xg, 4 °C) and 50 µL of plasma and whole-blood were counted using a PET cross-calibrated gamma well counter (WIZARD^2, PerkinElmer, France) to obtain the whole-blood and plasma activity curves. All data were corrected for radioactive decay from the injection time. For the larger blood samples, 500 µL plasma was deproteinized with acetonitrile. The supernatant was injected in high-performance liquid chromatography, equipped with an Atlantis® T3 5 μm 4.6 × 150 mm column (Waters) and an Atlantis® T3 5 μm 3.9 × 5 mm pre-column (Waters), with an LB-513 radioactivity flow detector (Berthold, La Garenne Colombes, France, MX Z100 cell). The eluant was collected in intervals of 15 s (fraction collector III, Waters, France) and counted in the gamma well counter (WIZARD^2, PerkinElmer, France) to measure total activity. [^18F]UCB-H parent fraction was calculated as a percentage of the total radioactivity (metabolites and parent).
For each animal, a 2-exponential decay function was fitted to [^18F]UCB-H parent fraction, which was time multiplied with the plasma activity curve to obtain the metabolite-corrected arterial plasma input function (mcAIF) used for the kinetic modeling.

T1 sequence (Q4R4X3 whole entry): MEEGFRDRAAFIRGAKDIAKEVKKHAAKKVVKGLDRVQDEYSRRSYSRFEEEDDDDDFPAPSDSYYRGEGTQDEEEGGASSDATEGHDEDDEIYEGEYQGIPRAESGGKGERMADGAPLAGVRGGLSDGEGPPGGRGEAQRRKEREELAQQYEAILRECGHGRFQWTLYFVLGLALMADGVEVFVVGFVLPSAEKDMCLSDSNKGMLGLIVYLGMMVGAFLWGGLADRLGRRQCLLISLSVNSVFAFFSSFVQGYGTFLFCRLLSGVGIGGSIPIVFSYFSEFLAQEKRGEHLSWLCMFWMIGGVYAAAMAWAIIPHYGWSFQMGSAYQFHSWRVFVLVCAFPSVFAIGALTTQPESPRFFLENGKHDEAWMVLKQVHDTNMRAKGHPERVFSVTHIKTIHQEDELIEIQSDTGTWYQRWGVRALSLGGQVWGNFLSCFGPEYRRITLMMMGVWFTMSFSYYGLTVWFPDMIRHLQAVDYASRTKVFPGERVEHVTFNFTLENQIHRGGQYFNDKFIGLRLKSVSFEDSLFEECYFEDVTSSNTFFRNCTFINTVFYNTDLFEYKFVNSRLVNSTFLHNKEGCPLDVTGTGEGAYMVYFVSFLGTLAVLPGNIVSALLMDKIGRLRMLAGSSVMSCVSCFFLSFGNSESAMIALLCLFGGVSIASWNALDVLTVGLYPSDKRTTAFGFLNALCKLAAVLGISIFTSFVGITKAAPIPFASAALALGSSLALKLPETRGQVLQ

In the case of `O=C1C[C@H](c2cc(F)c(F)c(F)c2)CN1Cc1ccncc1[18F]` [[^18F]UCB-H], the “Plasma free parent fraction (fp)” value in data set [1] was determined as 42.6 ± 1.6%. In addition, the “BPND expected from maximum displacement” value on SV2A is about 1.0. For the same compound, the intact parent fraction in data set [2] (15 min after tracer injection) stood at 37 ± 3.9%; in data set [2] (30 min after tracer injection), 29.5 ± 3.4%; in data set [2] (60 min after tracer injection) it was 19 ± 3.5%; in data set [2] (120 min after tracer injection), 14.6 ± 1.9%; in data set [2] (240 min after tracer injection), 4.4 ± 0.7%. Further, the “plasma to whole-blood ratio” value in data set [2] (over the entire 120-min acquisition period) was found to be 0.90 ± 0.05.

These data come from article PMC8026785, “The pharmacokinetics of [^18F]UCB-H revisited in the healthy non-human primate brain” (EJNMMI Research, 2021).
